The results in this text go back to patent publication US9051339B2, “Sulfur-containing bicyclic compound” (Astellas Pharma Inc., priority 2013, dated 2015).

The subject of this assay is pressure pain threshold in the gastrocnemius muscle. In words: Pressure pain threshold in model with reserpine-induced muscle pain. To be noted: oral, measured after 30 minutes; male SD rat; reserpine 1 mg/kg s.c. for 3 days. It counts as in vivo. The protocol: This model is a model that mimics the pathological conditions of fibromyalgia. This test was carried out on the basis of the description in Pain, 2009, vol. 146, p. 26-33. Reserpine (1 mg/kg) was subcutaneously administered to the male SD rat (Japan SLC, Inc.)) once per day for 3 days. After 5 days, the solvent or the test drug was orally administered. After 30 minutes, the pressure pain threshold value was measured using a Randall-Selitto instrument (Muromachi Kikai Co., Ltd.) in the gastrocnemius muscle. The significant difference assay between the solvent group and the group administered with the test drug was carried out by comparison between the groups using a Student's t-test or a Dunnett's multiple comparison test. Here, the value obtained by administering a solvent to a normal rat not administered with reserpine was taken as 100%, and the value of the reserpine group administered with a solvent was taken as 0%. In each assay, if p<0.05 was satisfied, it was determined that there was a significant difference.

The compound `Cc1nc(CN2CCS(=O)(=O)CC2)c2cc(C3CCC(C)(C)CC3)sc2n1` [Ex2, 6-(4,4-dimethylcyclohexyl)-4-[(1,1-dioxidothiomorpholin-4-yl)methyl]-2-methylthieno[2,3-d]pyrimidine] returned an MED of 0.03 mg/kg.
